Paper PMC7170309, “Imidazopyridine-fused [1,3]diazepinones: modulations of positions 2 to 4 and their impacts on the anti-melanoma activity” (Journal of Enzyme Inhibition and Medicinal Chemistry, 2020)

Tests used:
[1] = Calculated physicochemical parameters (molsoft cheminformatic tool); conditions: predicted
Method: Data set of physicochemical properties (cLogP, TPSA and molecular volume, Table 2) were calculated using the online available molsoft cheminformatic tool[23]. IC50 values of the compounds included in the test are presented in Table 1 for the correlations between IC50 and physicochemical properties of compounds modified in position 2 (Figure 2), and in Table S1 (SI) for the correlations between in vitro anti-cancer activity of JMV5038, compound 5 and […] on the NCI cell line panel (Figure 4). Pearson’s correlation coefficient r and level of significant p values were calculated using Origin Pro 2019.

RPMI-8226 = experiment: NCI-60 SRB assay, RPMI-8226 (Leukemia); assay type: cell-based, human; conditions: 10 µM, 48 h; for G%: growth vs untreated control
Method: Primary anticancer assay was performed on a panel of 60 human cancer cell lines derived from nine neoplastic diseases, in accordance with the protocol of the Drug Evaluation Branch, National Cancer Institute, Bethesda, Maryland, USA[22]. Cells were incubated with tested compounds at 10 µM for 48 h. The growth percentage was evaluated spectrophotometrically using a protein binding dye, SRB. Results for each tested compound were reported as the percent of growth of treated cells when compared to untreated control cells.
To better compare the activity profile of these two series of compounds, compounds 5 and 8 were selected and then evaluated towards a panel of sixty cancer cell lines corresponding to nine different cancer types, i.e. leukaemia, melanoma, as well as lung, colon, central nervous system, ovarian, renal, prostate and breast cancers (NCI evaluation). Indeed, it is now well established that the growth inhibitory patterns of anticancer drugs against the NCI-60 cell line panel correlated well with their modes of action. For example, compounds that bind to tubulin have similar growth inhibition patterns regardless of which site on tubulin they bind[30]. […] Compounds were tested using the sulforhodamine B (SRB) assay that provides a direct cell density index. The amount of dye incorporated by the cells increases with the increase of the total protein biomass. Cells were incubated for 48 h with compounds at 10 µM concentration, then cell growth was evaluated spectrophotometrically and presented as the percent of untreated control cells. Values of the most sensitive cell lines were compared to those obtained with JMV5038 (Figure 4, for all data see SI).

[2] = test system: NIH-3T3 non-cancerous cells; set-up: method as in PMID 24561668; conditions: even at 100 µM; cited from earlier work

| molecular volume increase compared to JMV5038 [1] | SMILES | Mean G% - G% (RPMI-8226) | G% (RPMI-8226) | cytotoxic activity on NIH-3T3 fibroblasts [2] |
| --- | --- | --- | --- | --- |
| 4% | C[C@@H]1NC(c2ccc(N=[N+]=[N-])cc2)=Nc2nc3ccccn3c2C1=O [Compound 5, (4S)-4-methyl-2-(4-azidophenyl)-3,4-dihydro-5H-pyrido[1’,2’:1,2]imidazo[4,5-d][1,3]diazepin-5-one] |  |  |  |
|  | C[C@@H]1NC(c2csc3ccccc23)=Nc2nc3ccccn3c2C1=O [Compound 8, (4S)-4-methyl-2-benzothiophen-3-yl-3,4-dihydro-5H-pyrido[1’,2’:1,2]imidazo[4,5-d][1,3]diazepin-5-one] | 24,51% | 50,36% |  |
|  | C[C@@H]1NC(c2ccc(Br)cc2)=Nc2nc3ccccn3c2C1=O [JMV5038] | -39,73% | 93,97% | no significant cytotoxic activity |
